Results as given in article PMC8689648, “Binding Affinity Determines Substrate Specificity and Enables Discovery of Substrates for N-Myristoyltransferases” (ACS Catalysis, 2021).
Read-outs that look alike come from different tables or passages of the source.

What was measured:
[1] = target: T1, N-myristoyltransferase 1 (NMT1) (Homo sapiens, UniProt P30419); test: steady-state inhibition kinetics of acetylation of ARF6 peptide (HPLC), recombinant NMT1; format: biochemical
T1 sequence (P30419 1-496): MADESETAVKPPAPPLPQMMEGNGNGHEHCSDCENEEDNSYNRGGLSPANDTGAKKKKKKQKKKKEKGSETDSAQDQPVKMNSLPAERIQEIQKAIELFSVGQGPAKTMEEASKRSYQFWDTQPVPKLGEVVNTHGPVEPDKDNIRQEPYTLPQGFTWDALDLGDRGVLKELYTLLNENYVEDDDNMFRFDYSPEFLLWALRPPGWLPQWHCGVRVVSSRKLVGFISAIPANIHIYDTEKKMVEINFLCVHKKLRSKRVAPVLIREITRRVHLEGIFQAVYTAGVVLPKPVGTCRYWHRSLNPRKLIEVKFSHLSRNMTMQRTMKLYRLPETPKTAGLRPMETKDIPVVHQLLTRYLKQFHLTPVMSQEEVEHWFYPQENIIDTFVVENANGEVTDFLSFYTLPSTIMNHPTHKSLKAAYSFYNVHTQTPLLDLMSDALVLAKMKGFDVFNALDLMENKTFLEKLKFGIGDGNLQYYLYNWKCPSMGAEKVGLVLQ

[2] = target: T1, N-myristoyltransferase 1 (NMT1); test: steady-state inhibition kinetics of myristoylation of ARF6 peptide (HPLC), recombinant NMT1; format: biochemical
[3] = target: T1, N-myristoyltransferase 1 (NMT1); test: steady-state kinetics with ARF6 peptide (HPLC, MS); Kia from ordered Bi-Bi global fit; format: biochemical
[4] = target: T2, human N-myristoyltransferase 1 (NMT1) (human) (UniProt P30419)
T2 sequence: T1 sequence (P30419 1-496)

## CC(=O)CSCCNC(=O)CCNC(=O)[C@H](O)C(C)(C)COP(=O)(O)OP(=O)(O)OC[C@H]1O[C@@H](n2cnc3c(N)ncnc32)[C@H](O)[C@@H]1OP(=O)(O)O [S-acetonyl-CoA]
[1]
  Ki: 10.1 ± 2.2 µM

## CCCCCCCCCCCCCC(=O)CSCCNC(=O)CCNC(=O)[C@H](O)C(C)(C)COP(=O)(O)OP(=O)(O)OC[C@H]1O[C@@H](n2cnc3c(N)ncnc32)[C@H](O)[C@@H]1OP(=O)(O)O [S-(2-oxo)pentadecyl-CoA]
[2]
  Ki: 14.7 ± 2.2 nM

## CCCCCCCCCCCCCC(=O)SCCNC(=O)CCNC(=O)[C@H](O)C(C)(C)COP(=O)(O)OP(=O)(O)OC[C@H]1O[C@@H](n2cnc3c(N)ncnc32)[C@H](O)[C@@H]1OP(=O)(O)O [Myr-CoA, myristoyl-CoA]
[3]
  Kd: 200 ± 100 nM

## CC(=O)SCCNC(=O)CCNC(=O)[C@H](O)C(C)(C)COP(=O)(O)OP(=O)(O)OC[C@H]1O[C@@H](n2cnc3c(N)ncnc32)[C@H](O)[C@@H]1OP(=O)(O)O [Ac-CoA, acetyl-CoA]
[3]; read-out: Kia
  Kd: 2400 ± 500 nM

B1: ARF6 N-terminal peptide (…) (peptide)
peptide: GKVLSKIFWW
[4]
  Kpep (Michaelis constant Km for ARF6 peptide) of NMT1-catalysed acetylation, Ac-CoA as the first substrate; 50 mM TriCl pH 8.0, 37 °C: 40 μM
  Kpep (Michaelis constant Km for ARF6 peptide) of NMT1-catalysed myristoylation, Myr-CoA as the first substrate; 50 mM TriCl pH 8.0, 37 °C: 5 μM
